Measurements published in US12171764B2, “Treatment of a disease of the gastrointestinal tract with a JAK or other kinase inhibitor” (BIORA THERAPEUTICS, INC., priority 2018, dated 2024).
Where two headings read alike, the source gives them in different places.

How the values were obtained:
[1] = Example 13: tacrolimus blood pharmacokinetics, oral vs intra-cecal administration; format: in vivo, Yorkshire-Cross farm swine; conditions: swine
Excerpt: (§1) No further randomization procedure was employed.

[2] = Example 10: tacrolimus blood/plasma pharmacokinetics, oral vs intra-cecal ingestible device delivery; format: in vivo, Yorkshire-Cross farm swine
Experimental: (§2) The primary objective of this study was to compare the tissue, plasma, rectal sample, and GI content pharmacokinetics of tacrolimus through oral versus intra-cecal ingestible device delivery in normal Yorkshire-Cross farm swine.
as §1
Animals in Group 1 received an ingestible device containing 0.8 mL of vehicle solution (80% alcohol, 20% HCO-60). Animals in Group 2 received orally […] liquid formulation of tacrolimus at 4 mg/0.8 mL per animal (Prograf: 5 mg/mL). Animals in Group 3 received intra-cecally an ingestible device containing tacrolimus at 1 mg in 0.8 mL per ingestible device. Animals in Group 4 received intra-cecally an ingestible device containing tacrolimus at 2 mg in 0.8 mL per ingestible device. Animals in Group 5 received intra-cecally an ingestible device containing tacrolimus at 4 mg in 0.8 mL per ingestible device. To control for potential confounding effects of the surgery, all groups fast on Day −11 at least 24 hr before being subjected to anesthesia followed by surgical placements of a cecal port by a veterinary surgeon at Day −10. All animals were fasted for at least 12 hr prior to dosing on Day 1. Animals were dosed via either intra-cecal dosing (IC) or oral dosing (PO) at Day 1 (between 6-8 p.m.). All animals resumed feeding at approximately 4 hours after dose (11-12 p.m. after dosing).
Approximately 200˜400 mg of rectal content were collected, if available, with a fecal swab (Copan Diagnostics Nylon Flocked Dry Swabs, 502CS01). The fecal swab was pre-weighed and weighed after collection in the collection tube (Sterile Tube and Cap No Media, PFPM913S), and the sample weight was recorded. The fecal swab was broken via the breakpoint, and was stored in the collection tube, and immediately frozen at −70° C. […] Immediately following euthanasia, tissue was collected.
[…] Plasma, rectal content sample, tissue collection, GI content collection and related procedures/storage/shipments was the same as those employed in Group 1.
Group 3 animals were administered a single intra-cecal ingestible device containing tacrolimus at 1-mg/0.8 mL (0.02 mg/kg) (in the vehicle solution) on Day 1 by a veterinary surgeon. […] All samples were analyzed for tacrolimus.
Group 4 animals were administered a single intra-cecal ingestible device of tacrolimus at 2 mg/0.8 mL (0.04 mg/kg) (in sterile vehicle solution) on Day 1 by a veterinary surgeon. […] All samples were analyzed for tacrolimus.
Group 5 animals are administered a single intra-cecal ingestible device containing tacrolimus at 4 mg/0.8 mL (0.08 mg/kg) (in the vehicle solution) on Day 1 by a veterinary surgeon. […] All samples were analyzed for tacrolimus. […]

[3] = Example 10: tacrolimus in GI tissue, luminal content and rectal content, oral vs intra-cecal ingestible device delivery; format: in vivo, Yorkshire-Cross farm swine; conditions: FIG. 92
Experimental: as §2
Animals in Group 1 received an ingestible device containing 0.8 mL of vehicle solution (80% alcohol, 20% HCO-60). Animals in Group 2 received orally […] liquid formulation of tacrolimus at 4 mg/0.8 mL per animal (Prograf: 5 mg/mL). Animals in Group 3 received intra-cecally an ingestible device containing tacrolimus at 1 mg in 0.8 mL per ingestible device. […]
Approximately 200˜400 mg of rectal content were collected, if available, with a fecal swab (Copan Diagnostics Nylon Flocked Dry Swabs, 502CS01). The fecal swab was pre-weighed and weighed after collection in the collection tube (Sterile Tube and Cap No Media, PFPM913S), and the sample weight was recorded. […]
For tissue necropsy, small intestine fluid and cecal fluid were collected separately from all the animals into two separate square plastic bottles, and stored at −20° C. The length and diameter of the cecum and the colon was measured from one animal in each group and recorded for reference. […] All samples were weighed, and the tissue sample weights were recorded. […] Around 3 grams of the total punched sample were collected into a pre-weighed 15-mL conical tube, and the tissue weight was recorded. […]

[4] = animals treated IC (Groups 5-6); FIG. 110
Experimental: Briefly, samples were analyzed by LC-MS/MS against matrix-matched standard curves.

[5] = tested on: IL-6, GM-CSF, IL-15, IL-2, IL-12, IL-13, TNF-α, and INF-γ; test: Tofacitinib pharmacodynamics: JAK/STAT pathway cytokines in plasma and colon tissue by ELISA in DSS-induced colitis mice; format: in vivo, male C57BL/6 mice
[6] = C57BL/6, mouse, in vivo, 10 mg/kg
[7] = C57BL/6, mouse, in vivo, po, 15 mg/kg

**Q.** What does the source list for `C=CC[C@@H]1/C=C(\C)C[C@H](C)C[C@H](OC)[C@H]2O[C@@](O)(C(=O)C(=O)N3CCCC[C@H]3C(=O)O[C@H](/C(C)=C/[C@@H]3CC[C@@H](O)[C@H](OC)C3)[C@H](C)[C@@H](O)CC1=O)[C@H](C)C[C@@H]2OC` [tacrolimus]?
**A.** Trough (12 hr) ([1]; IC 0.02 mg/kg (Group 3)): 0.746 ng/mL; Cmax ([1]; IC 0.04 mg/kg): 9.197 ± 3.30 ng/mL; Trough (12 hr) ([1]; IC 0.04 mg/kg (Group 4)): 1.96 ng/mL; Trough (12 hr) ([1]; IC 0.09 mg/kg (Group 5)): 4.35 ng/mL; Cmax ([1]; PO 0.09 mg/kg): 3.53 ± 3.84 ng/mL; Trough (12 hr) ([1]; PO 0.09 mg/kg (Group 2), 0.09 mg/kg): 0.568 ng/mL; Tmax ([2]; Route IC, Dose 0.02 (mg · kg)): 1; Cmax ([2]; Route IC, Dose 0.04 (mg · kg)): 9.197 ± 3.30 ng/mL; AUC 0-12 hr ([2]; Route PO, Dose 0.09 (mg · kg)): 16.83 ± 3.641 ng·h/mL; Tmax ([2]; Route PO, Dose 0.09 (mg · kg)): 1; rectal content concentration at 12 hours post-treatment ([3]; IC capsule groups): higher rectal content concentration; rectal content concentration at 12 hours post-treatment ([3]; PO group): no detectable level

**Q.** Which blood exposure [4] does the source give for `C[C@@H]1CCN(C(=O)CC#N)C[C@@H]1N(C)c1ncnc2[nH]ccc12.O=C(O)CC(O)(CC(=O)O)C(=O)O` [tofacitinib citrate] here?
**A.** The blood exposure was “limited blood exposure”.

**Q.** What about the “IL-6 expression in plasma” value ([5]; PO or IC administration, 1 h and 3 h post-treatment (data not shown)) of the same compound?
**A.** The value was “inhibition of IL-6 expression was observed”.

**Q.** What about the “IL-6 expression in colon tissue” value ([5]; all IC treated groups and the high dose PO group (45 mg/kg), FIG. 112B) of the same compound?
**A.** Its value is “inhibition of IL-6 expression was sustained through 24 h post-dose”.

**Q.** And the “IL-6 expression in colon tissue” value ([5]; low dose PO group (15 mg/kg) by 12 h post-dose)?
**A.** Its value is “Recovery from IL-6 inhibition was observed”.

**Q.** Which T1/2 [6] does the source give for `C[C@@H]1CCN(C(=O)CC#N)C[C@@H]1N(C)c1ncnc2[nH]ccc12` [tofacitinib, 3-[(3R,4R)-4-methyl-3-[methyl(7H-pyrrolo[2,3-d]pyrimidin-4-yl)amino]piperidin-1-yl]-3-oxopropanenitrile] here?
**A.** The T1/2 was 2.16 h.

**Q.** And the T1/2 [7]?
**A.** Its T1/2 is 2.53 h.

**Q.** And the “GM-CSF levels in plasma or colon tissue” value ([5]; IC vs PO treatment groups (data not shown))?
**A.** The value was “nor was there a significant difference in GM-CSF levels”.
